Literature values as cited in US20130190270A1, “Method for Improving Vein Performance in Bypass Surgery” (priority 2012, published 2013).
Where two headings read alike, the source gives them in different places.

How the values were obtained:
atherosclerosis [1] = conditions: mice
atherosclerosis [2] = conditions: guinea pigs
atherosclerosis [3] = conditions: humans
circulating sPLA2-IIA = conditions: patients who underwent CABG

Compound | effect on atherosclerosis (atherosclerosis [1]) | effect on atherosclerosis (atherosclerosis [2]) | effect on atherosclerosis (atherosclerosis [3]) | effect on circulating sPLA2-IIA levels (circulating sPLA2-IIA)
CCc1c(C(=O)C(N)=O)c2c(OCC(=O)O)cccc2n1Cc1ccccc1 | can reduce atherosclerosis | can reduce atherosclerosis | can reduce atherosclerosis | –
heparin | – | – | – | induce increased circulating sPLA2-IIA levels
